According to patent US20230303572A1, “18-MC SALT FORMS” (Mind Medicine, Inc., priority 2022, published 2023):
Counter-ions that a name gives are not always drawn. Marks after values point to notes of the source that are not given here.

Columns and labels:
Type in all cases: physicochemical
[1] = Approximate solubility estimated by stepwise solvent addition (RT and 50° C.)
Description: Approximate solubility values of sulfate Type A (824511-04-A) were estimated in 10 solvents to guide the solvent selection in the polymorph screening, with results summarized in TABLE 16B.
Approximate solubility of oxalate Type B (824511-04-C) was estimated in 10 solvents to guide the solvent selection in polymorph screening of oxalate, and the results were summarized in TABLE 19C.
Procedure: weigh ~2 mg solids into each 3-mL glass vial, add in corresponding solvent stepwise and sonicate or oscillate to see if solids dissolved completely. Stop adding solvent till the solids dissolves or total volume reaches 1.0 mL. Calculate the approximate solubility based on solvent volume.
The approximate solubility of mesylate Type A (824511-23-B) was estimated in 10 solvents to guide the solvent selection in polymorph screening of the mesylate, with results summarized in TABLE 22C.
Approximate solubility of HBr salt Type A (824511-29-B) was estimated in 10 solvents to guide the solvent selection in polymorph screening of HBr salt, with data summarized in TABLE 25B.
Approximate solubility of tosylate Type B (824511-23-A-0628) was estimated in 40 solvents to guide the solvent selection in polymorph screening of tosylate, with data summarized in TABLE 27B.
Approximate solubility of besylate Type B (824511-44-C2) was estimated in 38 solvents to guide the solvent selection in polymorph screening of besylate, with results shown in TABLE 31.

[2] = Physical form stability on storage at RT, air drying or exposure to ambient conditions (XRPD); settings: for physical stability at ambient conditions: time not stated; for Speculated form (physical stability): the solid turn to gel-like after air drying at RT in a few minutes
Description: (§1) For XRPD analysis, a PANalytical Empyrean and X′ Pert3 X-ray powder diffract meter was used.

[3] = Heating experiments and VT-XRPD (N2 drying, heating, cooling back): form change; settings: for Form change after treatment: Heat to 165~170° C. under N2, XRPD form; for Form after heating: solid form by XRPD after heating, cells marked *, # have footnotes that are not shown; for form change after N2 drying (VT-XRPD): N2-drying for 20 min at 30° C.
Description: as §1

[4] = heating to 80° C. and cooling back to RT
[5] = approximate solubility in EtOAc at RT
[6] = approximate solubility in H2O at RT
[7] = approximate solubility in MeOH at RT
[8] = approximate solubility in n-Heptane at RT
[9] = approximate solubility in CHCl3 at RT
[10] = approximate solubility in THF at RT

## COCCC1CC2CN3CCc4c([nH]c5ccccc45)C(C(=O)OC)(C2)C13.O=S(=O)(O)c1ccccc1 (stereo not drawn) [besylate Type B (824511-44-C2)]
[1]; 50° C., solvent 2-MeTHF, *: little solids in the vial
  Approximate solubility: S<1.9* mg/mL
[1]; 50° C., solvent Toluene
  Approximate solubility: S<1.9 mg/mL
[1]; 50° C., solvent n-Heptane
  Approximate solubility: S<2.0 mg/mL
[1]; RT, solvent 2-MeTHF
  Approximate solubility: S<1.9 mg/mL
[1]; RT, solvent ACN
  Approximate solubility: S>40.0 mg/mL
[1]; RT, solvent ACN/H2O (1:2, aw 0.9), *: little solids in the vial
  Approximate solubility: S<1.9* mg/mL
[1]; RT, solvent CHCl3
  Approximate solubility: S>40.0 mg/mL
[1]; RT, solvent DCM
  Approximate solubility: S>40.0 mg/mL
[1]; RT, solvent EtOAc
  Approximate solubility: S<2.0 mg/mL
[1]; RT, solvent H2O
  Approximate solubility: S<2.0 mg/mL
[1]; RT, solvent IPA/H2O (847:153, aw 0.8)
  Approximate solubility: S>40.0 mg/mL
[1]; RT, solvent MeOH
  Approximate solubility: S>44.0 mg/mL
[1]; RT, solvent THF/H2O (87:13, aW 0.8)
  Approximate solubility: S>42.0 mg/mL
[1]; RT, solvent THF/H2O (981:19, aw 0.2)
  Approximate solubility: S>40.0 mg/mL
[1]; RT, solvent n-Heptane
  Approximate solubility: S<2.0 mg/mL

## COCC[C@H]1CC2CN3CCc4c([nH]c5ccccc45)[C@](C(=O)OC)(C2)[C@H]13 [HCl salt Type N, 18-methoxycoronaridine]
[2]; RT storage, metastable forms
  Form after treatment: HCl salt Type A^#
[2]; after air drying or RT storage, duration not stated
  form conversion, summary statement: converted to HCl salt Type A

## COCC[C@H]1CC2CN3CCc4c([nH]c5ccccc45)[C@](C(=O)OC)(C2)[C@H]13 [HCl salt Type A+L, 18-methoxycoronaridine]
[2]; storage at RT for ~22 days
  form change after storage (XRPD): converted to HCl salt Type A completely

## COCC[C@H]1CC2CN3CCc4c([nH]c5ccccc45)[C@](C(=O)OC)(C2)[C@H]13 [mesylate Type B, 18-methoxycoronaridine]
[2]
  physical stability at ambient conditions: not found to be physically stable at ambient conditions and easily converted to gels/oils
  Speculated form (physical stability): Metastable*

## COCC[C@H]1CC2CN3CCc4c([nH]c5ccccc45)[C@](C(=O)OC)(C2)[C@H]13 [mesylate Type C, 18-methoxycoronaridine]
[2]
  physical stability at ambient conditions: not found to be physically stable at ambient conditions and easily converted to gels/oils
  Speculated form (physical stability): Metastable*

## COCC[C@H]1CC2CN3CCc4c([nH]c5ccccc45)[C@](C(=O)OC)(C2)[C@H]13 [tosylate Type G, 18-methoxycoronaridine]
[3]; [4]
  form change after heating (XRPD): no form change
[3]; heating to 90° C.
  form change after heating (XRPD): crystallinity of the sample decreased significantly
[3]; heating to 100° C.
  form change after heating (XRPD/VT-XRPD): amorphous was obtained

## COCC[C@H]1CC2CN3CCc4c([nH]c5ccccc45)[C@](C(=O)OC)(C2)[C@H]13 [HCl salt Type A+O, 18-methoxycoronaridine]
[2]; storage at RT for ~19 days
  form change after storage (XRPD): converted to HCl salt Type A completely

## COCC[C@H]1CC2CN3CCc4c([nH]c5ccccc45)[C@](C(=O)OC)(C2)[C@H]13 [besylate Type C, 18-methoxycoronaridine]
[2]; exposure to ambient conditions for ~30 min
  form change after exposure to ambient conditions (XRPD): converted back to besylate Type A

## COCC[C@H]1CC2CN3CCc4c([nH]c5ccccc45)[C@](C(=O)OC)(C2)[C@H]13 [oxalate Type B, 18-methoxycoronaridine]
[1]; [5]
  Solubility (mg/mL): S<1.8 mg/mL
[1]; [6]
  Solubility (mg/mL): S>38.0 mg/mL
[1]; [7]
  Solubility (mg/mL): S>44.0 mg/mL
[1]; [8]
  Solubility (mg/mL): S<2.1 mg/mL

## COCC[C@H]1CC2CN3CCc4c([nH]c5ccccc45)[C@](C(=O)OC)(C2)[C@H]13 [tosylate Type F, 18-methoxycoronaridine]
[3]; heating to 90° C.
  form change after heating (XRPD): form change to tosylate Type B

## COCC[C@H]1CC2CN3CCc4c([nH]c5ccccc45)[C@](C(=O)OC)(C2)[C@H]13 [sulfate Type E, 18-methoxycoronaridine]
[3]; heating to 100° C.
  form change after heating (XRPD/VT-XRPD): no form change

## COCC[C@H]1CC2CN3CCc4c([nH]c5ccccc45)[C@](C(=O)OC)(C2)[C@H]13 [tosylate Type E, 18-methoxycoronaridine]
[3]; [4]
  form change after heating (XRPD): no form change
[3]; heating to 101° C. and cooling back to RT
  form change after heating (XRPD): a sample with weak crystallinity and similar to tosylate Type B was obtained

## COCC[C@H]1CC2CN3CCc4c([nH]c5ccccc45)[C@](C(=O)OC)(C2)[C@H]13 [HCl salt Type F, 18-methoxycoronaridine]
[3]
  Form change after treatment: HCl salt Type K*
  Form after heating: HCl salt Type K^#

## COCC[C@H]1CC2CN3CCc4c([nH]c5ccccc45)[C@](C(=O)OC)(C2)[C@H]13 [tosylate Type B, 18-methoxycoronaridine]
[1]; 50° C., 1,4-Dioxane/n-heptane (1:2) v:v
  Approximate solubility: S<1.9 mg/mL
[1]; 50° C., IPAc
  Approximate solubility: S<2.2 mg/mL
[1]; 50° C., MTBE
  Approximate solubility: S<2.1 mg/mL
[1]; 50° C., Toluene
  Approximate solubility: S<1.9 mg/mL
[1]; 50° C., n-Heptane
  Approximate solubility: S<2.0 mg/mL
[1]; RT, 2-MeTHF
  Approximate solubility: S<2.1 mg/mL
[1]; RT, ACN/toluene (4:1) v:v
  Approximate solubility: S>42.0 mg/mL
[1]; RT, Acetone/n-heptane (4:1) v:v
  Approximate solubility: S<2.0 mg/mL
[1]; RT, CHCl3
  Approximate solubility: S>40.0 mg/mL
[1]; RT, CHCl3/toluene (1:4) v:v
  Approximate solubility: S<1.9 mg/mL
[1]; RT, EtOAc, little solid in the vial
  Approximate solubility: S<2.1^& mg/mL
[1]; RT, EtOH
  Approximate solubility: S>40.0 mg/mL
[1]; RT, EtOH/n-hexane (3:1) v:v
  Approximate solubility: S>42.0 mg/mL
[1]; RT, H2O
  Approximate solubility: S<2.0 mg/mL
[1]; RT, MeOH
  Approximate solubility: S>44.0 mg/mL
[1]; RT, THF/H2O (87:13) v:v
  Approximate solubility: S>42.0 mg/mL
[1]; RT, n-Heptane
  Approximate solubility: S<2.0 mg/mL

## COCC[C@H]1CC2CN3CCc4c([nH]c5ccccc45)[C@](C(=O)OC)(C2)[C@H]13 [HCl salt Type H, 18-methoxycoronaridine]
[3]
  Form change after treatment: Freebase Type A+extra peak*
  Form after heating: Freebase Type A+extra peak

## COCC[C@H]1CC2CN3CCc4c([nH]c5ccccc45)[C@](C(=O)OC)(C2)[C@H]13 [mesylate Type A, 18-methoxycoronaridine]
[1]; approximate solubility in Acetone at RT
  Solubility (mg/mL): S<2.3 mg/mL
[1]; [9]
  Solubility (mg/mL): S>42.0* mg/mL
[1]; [5]
  Solubility (mg/mL): S<2.2 mg/mL
[1]; [6]
  Solubility (mg/mL): S>42.0* mg/mL
[1]; [7]
  Solubility (mg/mL): S>40.0 mg/mL
[1]; [10]
  Solubility (mg/mL): S<2.0 mg/mL
[1]; [8]
  Solubility (mg/mL): S<2.0 mg/mL
[3]
  form change after N2 drying (VT-XRPD): no form change
[3]; heating to 100° C.
  form change after heating (XRPD/VT-XRPD): no obvious form change

## COCC[C@H]1CC2CN3CCc4c([nH]c5ccccc45)[C@](C(=O)OC)(C2)[C@H]13 [sulfate Type A, 18-methoxycoronaridine]
[1]; CHCl3, RT, approximate
  Solubility (mg/mL): S<1.9 mg/mL
[1]; DCM, RT, approximate
  Solubility (mg/mL): S<2.1 mg/mL
[1]; EtOAc, RT, approximate
  Solubility (mg/mL): S<2.0 mg/mL
[1]; MeOH, RT, approximate
  Solubility (mg/mL): S>44.0 mg/mL
[1]; THF, RT, approximate
  Solubility (mg/mL): S<1.9 mg/mL
[1]; Toluene, RT, approximate
  Solubility (mg/mL): S<2.2 mg/mL
[1]; n-Heptane, RT, approximate
  Solubility (mg/mL): S<1.8 mg/mL
[3]
  form change after N2 drying (VT-XRPD): no obvious form change
[3]; heating to 120° C.
  form change after heating (XRPD/VT-XRPD): no obvious form change

## COCC[C@H]1CC2CN3CCc4c([nH]c5ccccc45)[C@](C(=O)OC)(C2)[C@H]13 [HBr salt Type A, 18-methoxycoronaridine]
[1]; approximate solubility in ACN at RT
  Solubility (mg/mL): S<2.1 * mg/mL
[1]; [9]
  Solubility (mg/mL): S<2.1 * mg/mL
[1]; approximate solubility in DCM at RT
  Solubility (mg/mL): S<2.1 * mg/mL
[1]; [5]
  Solubility (mg/mL): S<2.1 mg/mL
[1]; [6]
  Solubility (mg/mL): S<2.1 mg/mL
[1]; [7]
  Solubility (mg/mL): S>42.0 mg/mL
[1]; [10]
  Solubility (mg/mL): S<2.0 mg/mL
[1]; [8]
  Solubility (mg/mL): S<2.0 mg/mL
[3]; drying or heating under N2 to higher temperatures and cooling back to RT
  form change after drying or heating (VT-XRPD): no form change

## COCC[C@H]1CC2CN3CCc4c([nH]c5ccccc45)[C@](C(=O)OC)(C2)[C@H]13 [besylate Type B, 18-methoxycoronaridine]
[3]
  form change after N2 drying (VT-XRPD): no obvious form change
[3]; heating to 100° C.
  form change after heating (XRPD/VT-XRPD): no obvious form change

## COCC[C@H]1CC2CN3CCc4c([nH]c5ccccc45)[C@](C(=O)OC)(C2)[C@H]13 [sulfate Type D, 18-methoxycoronaridine]
[3]
  form change after N2 drying (VT-XRPD): a new form was observed and assigned as sulfate Type F

## COCC[C@H]1CC2CN3CCc4c([nH]c5ccccc45)[C@](C(=O)OC)(C2)[C@H]13 [besylate Type A, 18-methoxycoronaridine]
[3]; heating to 100° C.
  form change after heating (XRPD/VT-XRPD): a new form was observed and assigned as besylate Type C
